Source: BindingDB's records for doi:10.1016/j.bmcl.2005.05.101 (Glaxosmithkline, 2005)

What was measured:
[1] = target: T1, Dimer of Gag-Pol polyprotein [501-599,Q508K,L534I,L564I,C568A,C596A] (Human immunodeficiency virus 1, UniProt P03367, C568A/C596A/L534I/L564I/Q508K); test: Protease Inhibition Assay
T1 construct: 501-599
Protocol: The Ki values were determined using fluorogenic substrate, 2-(aminobenzoyl)-Thr-Ile-Nle-Phe(p-NO2)-Gln-ArgNH2. A standard curve relating changes in fluorescent intensity to changes in concentration of product was used to convert fluorescent changes into molar velocities. The amount of cleavage was determined by HPLC.

[2] = target: T1, Dimer of Gag-Pol polyprotein [501-599,Q508K,L534I,L564I,C568A,C596A]; test: Protease Inhibition Assay; details: pH 6.8; 25 °C

Row | Structure (SMILES) | Ki [1] [pM] | Ki ([1]; pH 6.8, 25 °C) [pM] | IC50 [2] [pM]
1 | O=C(N[C@@H](Cc1ccccc1)[C@H](O)CN(OC1CCCCC1)S(=O)(=O)c1ccc(O)cc1)O[C@H]1CO[C@H]2OCC[C@H]21 [(3R,3aS,6aR)-hexahydrofuro[2,3-b]furan-3-yl N-[(2S,3R)-4-[(cyclohexyloxy)(4-hydroxybenzene)sulfonamido]-3-hydroxy-1-phenylbutan-2-yl]carbamate] | < 5 | – | –
2 | Nc1ccc(S(=O)(=O)N(C[C@@H](O)[C@H](Cc2ccccc2)NC(=O)O[C@H]2CO[C@H]3OCC[C@H]32)OC2CCCC2)cc1 [(3R,3aS,6aR)-hexahydrofuro[2,3-b]furan-3-yl N-[(2S,3R)-4-[(4-aminobenzene)(cyclopentyloxy)sulfonamido]-3-hydroxy-1-phenylbutan-2-yl]carbamate] | < 5 | – | –
3 | O=C(N[C@@H](Cc1ccccc1)[C@H](O)CN(OC1CCCC1)S(=O)(=O)c1ccc(O)cc1)O[C@H]1CO[C@H]2OCC[C@H]21 [N-alkoxysulfonamide analog entry n] | < 5 | – | –
4 | COc1ccc(S(=O)(=O)N(C[C@@H](O)[C@H](Cc2ccccc2)NC(=O)O[C@H]2CO[C@H]3OCC[C@H]32)OC2CCCC2)cc1 [N-alkoxysulfonamide analog entry k] | – | < 5 | 6000
5 | O=C(N[C@@H](Cc1ccccc1)[C@H](O)CN(OC1CCCCC1)S(=O)(=O)c1ccc2c(c1)OCO2)O[C@H]1CO[C@H]2OCC[C@H]21 [(3R,3aS,6aR)-hexahydrofuro[2,3-b]furan-3-yl N-[(2S,3R)-4-[2H-1,3-benzodioxole-5-(cyclohexyloxy)sulfonamido]-3-hydroxy-1-phenylbutan-2-yl]carbamate] | < 5 | – | –
6 | O=C(N[C@@H](Cc1ccccc1)[C@H](O)CN(OC1CCCC1)S(=O)(=O)c1ccc2c(c1)OCCO2)O[C@H]1CO[C@H]2OCC[C@H]21 [N-alkoxysulfonamide analog entry p] | < 5 | – | –
7 | O=C(N[C@@H](Cc1ccccc1)[C@H](O)CN(OC1CCCC1)S(=O)(=O)c1ccc2c(c1)OCO2)O[C@H]1CO[C@H]2OCC[C@H]21 [(3R,3aS,6aR)-hexahydrofuro[2,3-b]furan-3-yl N-[(2S,3R)-4-[2H-1,3-benzodioxole-5-(cyclopentyloxy)sulfonamido]-3-hydroxy-1-phenylbutan-2-yl]carbamate] | < 5 | – | –
8 | Nc1cccc(S(=O)(=O)N(C[C@@H](O)[C@H](Cc2ccccc2)NC(=O)O[C@H]2CO[C@H]3OCC[C@H]32)OC2CCCC2)c1 [(3R,3aS,6aR)-hexahydrofuro[2,3-b]furan-3-yl N-[(2S,3R)-4-[(3-aminobenzene)(cyclopentyloxy)sulfonamido]-3-hydroxy-1-phenylbutan-2-yl]carbamate] | < 5 | – | –
9 | COc1ccc(S(=O)(=O)N(C[C@@H](O)[C@H](Cc2ccccc2)NC(=O)O[C@H]2CCOC2)OC2CCCC2)cc1 [(3S)-oxolan-3-yl N-[(2S,3R)-4-[(cyclopentyloxy)(4-methoxybenzene)sulfonamido]-3-hydroxy-1-phenylbutan-2-yl]carbamate] | – | 190 | 738000
10 | COC(=O)N[C@H](C(=O)N[C@@H](Cc1ccccc1)[C@H](O)CN(OC1CCCC1)S(=O)(=O)c1ccc(OC)cc1)C(C)(C)C [methyl N-[(1S)-1-{[(2S,3R)-4-[(cyclopentyloxy)(4-methoxybenzene)sulfonamido]-3-hydroxy-1-phenylbutan-2-yl]carbamoyl}-2,2-dimethylpropyl]carbamate] | – | – | 203000
11 | O=C(N[C@@H](Cc1ccccc1)[C@H](O)CN(OC1CCCCC1)S(=O)(=O)c1ccc2c(c1)OCCO2)O[C@H]1CO[C@H]2OCC[C@H]21 [(3R,3aS,6aR)-hexahydrofuro[2,3-b]furan-3-yl N-[(2S,3R)-4-[(cyclohexyloxy)(2,3-dihydro-1,4-benzodioxine-6-)sulfonamido]-3-hydroxy-1-phenylbutan-2-yl]carbamate] | < 5 | – | –
12 | COc1ccc(S(=O)(=O)N(C[C@@H](O)[C@H](Cc2ccccc2)NC(=O)O[C@H]2CO[C@H]3OCC[C@H]32)OC2CCCCC2)cc1 [N-alkoxysulfonamide analog entry q] | < 5 | – | –
13 | COc1ccc(S(=O)(=O)N(C[C@@H](O)[C@H](Cc2ccccc2)NC(=O)[C@@H](NC(=O)c2ccc3ccccc3n2)C(N)=O)OC2CCCC2)cc1 [N-alkoxysulfonamide analog entry j] | – | < 5 | 24000
